According to ChEMBL document CHEMBL2346534, “Design, synthesis and in vitro anti-proliferative activity of 4,6-quinazolinediamines as potent EGFR-TK inhibitors” (Eur J Med Chem, 2013):

Molecular target: Epidermal growth factor receptor (Homo sapiens, UniProt P00533)
Conditions: at 10 µM
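Also: EGFR tyrosine kinase activity on a poly(Glu,Tyr) substrate, read out by Kinase-Glo Plus luminescence after a 40 min reaction.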

Chain of Epidermal growth factor receptor (P00533 whole entry): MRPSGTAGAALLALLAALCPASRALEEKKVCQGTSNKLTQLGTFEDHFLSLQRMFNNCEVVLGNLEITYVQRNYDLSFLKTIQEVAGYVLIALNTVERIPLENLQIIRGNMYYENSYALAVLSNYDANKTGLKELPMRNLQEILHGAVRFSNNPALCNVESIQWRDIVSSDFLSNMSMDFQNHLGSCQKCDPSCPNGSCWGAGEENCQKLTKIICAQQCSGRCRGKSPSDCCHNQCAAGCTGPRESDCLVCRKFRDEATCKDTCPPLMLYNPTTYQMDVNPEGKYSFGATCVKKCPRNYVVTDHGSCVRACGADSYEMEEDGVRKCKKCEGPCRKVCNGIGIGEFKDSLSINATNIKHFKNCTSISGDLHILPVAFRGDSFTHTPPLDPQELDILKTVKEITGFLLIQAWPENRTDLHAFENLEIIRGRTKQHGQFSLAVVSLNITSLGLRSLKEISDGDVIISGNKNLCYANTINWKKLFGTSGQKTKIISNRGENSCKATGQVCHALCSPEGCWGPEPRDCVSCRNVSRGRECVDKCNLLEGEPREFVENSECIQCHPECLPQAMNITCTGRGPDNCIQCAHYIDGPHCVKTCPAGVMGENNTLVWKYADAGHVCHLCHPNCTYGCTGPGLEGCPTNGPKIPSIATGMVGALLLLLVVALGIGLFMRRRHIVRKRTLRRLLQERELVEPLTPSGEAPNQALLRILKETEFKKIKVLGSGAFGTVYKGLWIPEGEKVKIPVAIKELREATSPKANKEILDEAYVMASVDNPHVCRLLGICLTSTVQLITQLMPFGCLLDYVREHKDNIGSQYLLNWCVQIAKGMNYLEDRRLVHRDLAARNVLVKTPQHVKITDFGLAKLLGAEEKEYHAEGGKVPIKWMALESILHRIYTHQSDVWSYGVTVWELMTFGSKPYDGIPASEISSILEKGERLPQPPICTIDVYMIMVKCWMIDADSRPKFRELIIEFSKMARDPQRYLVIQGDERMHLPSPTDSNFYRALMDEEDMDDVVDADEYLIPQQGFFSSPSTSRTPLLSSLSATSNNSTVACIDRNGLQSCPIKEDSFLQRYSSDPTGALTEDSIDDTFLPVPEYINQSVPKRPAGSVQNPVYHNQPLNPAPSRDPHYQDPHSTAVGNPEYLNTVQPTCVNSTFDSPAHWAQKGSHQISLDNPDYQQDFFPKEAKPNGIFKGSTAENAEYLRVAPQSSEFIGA
Description: Inhibition of EGFR tyrosine kinase (unknown origin) using poly (Glu,Tyr) as substrate at 10 uM after 40 mins by Kinase-Glo Plus luminescence kinase assay

Row | inhibition [%] | Compound
1 | 82 | CCOC(=O)C(=CNc1ccc2ncnc(Nc3ccc(Cl)cc3)c2c1)C(=O)OCC
2 | 100 | CCOC(=O)C(=CNc1ccc2ncnc(Nc3cccc(Br)c3)c2c1)C(=O)OCC
3 | 90 | CCOC(=O)C(=CNc1ccc2ncnc(Nc3ccc(Cl)cc3Cl)c2c1)C(=O)OCC
4 | 100 | CCOC(=O)/C(C#N)=C\Nc1ccc2ncnc(Nc3ccc(O)cc3)c2c1
5 | 100 | CCOC(=O)C(=CNc1ccc2ncnc(Nc3ccccc3Cl)c2c1)C(=O)OCC
6 | 100 | C#Cc1cccc(Nc2ncnc3ccc(NC=C(C(=O)OCC)C(=O)OCC)cc23)c1
7 | 100 | CCOC(=O)/C(C#N)=C\Nc1ccc2ncnc(Nc3cccc(Br)c3)c2c1
8 | 84 | CCOC(=O)/C(C#N)=C\Nc1ccc2ncnc(Nc3ccccc3CC)c2c1
9 | 90 | Nc1ccc2ncnc(Nc3ccccc3Cl)c2c1
10 | 100 | CCOC(=O)/C(C#N)=C\Nc1ccc2ncnc(Nc3cccc(O)c3)c2c1
11 | 100 | CCOC(=O)C(=CNc1ccc2ncnc(Nc3ccc(O)cc3)c2c1)C(=O)OCC
